Values quoted from earlier work, collected in patent US20040002663A1, “Method and system for use in detecting a cancerous and precancerous pathology” (priority 2002, published 2004).
Read-outs that look alike come from different tables or passages of the source.

How the values were obtained:
[1] = system: patients with orthostatic hypotension; details: for increase in standing one-minute systolic pressure: at one hour
[2] = system: patients with orthostatic hypotension
[3] = system: patients with orthostatic hypotension; details: for increase in one-minute standing systolic blood pressure: 10 mg at 0, 3, 6 hours
[4] = system: patients with orthostatic hypotension of various etiologies
[5] = system: alpha-adrenergic receptors of the arteriolar and venous vasculature; details: active metabolite of midodrine
[6] = system: cardiac beta-adrenergic receptors
[7] = 10 mg t.i.d., printed as a pair (systolic/diastolic)

| SMILES | time the increase in standing systolic pressure was sustained in part ([1]; after 10 mg) | time the increase in standing systolic pressure was sustained in part ([1]; after 20 mg) | increase in standing one-minute systolic pressure ([1]; single 10 mg dose) | increase in standing one-minute systolic pressure ([1]; single 20 mg dose) | higher one-minute standing systolic pressure ([2]; 10 mg t.i.d., one hour after dosing, 170 patients, vs placebo) | sitting blood pressure rise [2, 7] | supine blood pressure rise [2, 7] | dizziness/light headedness/unsteadiness scores and global evaluations ([2]; after week one) | increase in one-minute standing systolic blood pressure ([3]; one hour after each dose) | increase in one-minute standing systolic blood pressure ([3]; three hours after each dose) | three-minute standing pressures ([3]; 10 mg, one and 3 hours after dosing) | standing time ([3]; 10 mg, one and three hours after dosing) | standing, sitting, and supine systolic and diastolic blood pressure [4] | action at alpha-adrenergic receptors [5] | stimulation of cardiac beta-adrenergic receptors [6] |
| --- | --- | --- | --- | --- | --- | --- | --- | --- | --- | --- | --- | --- | --- | --- | --- |
| COc1ccc(OC)c(C(O)CNC(=O)CN)c1.Cl (racemic) [midodrine, (±)−2-amino-N-(β-hydroxy-2,5-dimethoxyphenethyl)acetamide monohydrochloride] | two | four | about 30 mmHg | about 30 mmHg | about 20 mmHg | 20/10 | 16/8 | small improvements | about 15 mmHg | about 12 mmHg | increased also at one, but not 3, hours after dosing | increases in standing time seen intermittently one hour after dosing, but not at three hours | rise |  |  |
| COc1ccc(OC)c(C(O)CN)c1 (stereo not drawn) [Desglymidodrine] |  |  |  |  |  |  |  |  |  |  |  |  |  | alph1-agonist | does not stimulate |
